# Test results taken from US12052991B2, “Substituted pyridinyloxybenzenes and salts thereof and use thereof as herbicidal agents” (Bayer Aktiengesellschaft, priority 2018, dated 2024).
# Experiments:
# Assay type in all cases: in vivo
# [1] = test system: Stellaria media (STEME); assay: Herbicidal post-emergence action (Table B8); conditions: visual rating about 3 weeks after treatment, 100% = plants have died, 0% = like control plants
# Method: (§1) Seeds of mono- and dicotyledonous weed plants were placed in plastic pots in sandy loam soil (doubly sown with in each case one species of mono- or dicotyledonous weed plants per pot), covered with soil and cultivated in a greenhouse under controlled growth conditions. 2 to 3 weeks after sowing, the test plants were treated at the one-leaf stage. The compounds of the invention, formulated in the form of wettable powders (WP) or as emulsion concentrates (EC), were applied onto the green parts of the plants as aqueous suspension or emulsion with addition of 0.5% additive at a water application rate of 600 liters per hectare (converted). After the test plants had been kept in the greenhouse under optimum growth conditions for about 3 weeks, the activity of the preparations was rated visually in comparison to untreated controls. For example, 100% activity=the plants have died, 0% activity=like control plants. Tables B1 to B12 below show the effects of selected compounds of the general formula (I) according to Table 1 on various harmful plants and an application rate corresponding to 1280 or 320 g/ha, which were obtained by the experimental procedure mentioned above.
# [2] = test system: Setaria viridis (SETVI); assay: Herbicidal pre-emergence action, test C (Table C4); conditions: visual scoring after about 3 weeks, 100% = plants have died, 0% = like control plants
# Text: (§2) Seeds of mono- and dicotyledonous weed plants were placed in plastic pots in sandy loam soil (doubly sown with one species each of mono- or dicotyledonous weed plants per pot) and covered with soil. The compounds of the invention, formulated in the form of wettable powders (WP) or as emulsion concentrates (EC), were then applied onto the surface of the covering soil as aqueous suspension or emulsion with addition of 0.5% additive at a water application rate of 600 liters per hectare (converted). After the treatment, the pots were placed in a greenhouse and kept under good growth conditions for the test plants. After about 3 weeks, the effect of the preparations was scored visually in comparison with untreated controls as percentages. For example, 100% activity=the plants have died, 0% activity=like control plants. Tables C1 to C12 below show the effects of selected compounds of the general formula (I) according to Table 1 on various harmful plants and an application rate corresponding to 1280 or 320 g/ha, which were obtained by the experimental procedure mentioned above.
# [3] = test system: Amaranthus retroflexus (AMARE); assay: Herbicidal post-emergence action (Table B6); conditions: visual rating about 3 weeks after treatment, 100% = plants have died, 0% = like control plants
# Method: as §1
# [4] = test system: Stellaria media (STEME); assay: Herbicidal pre-emergence action, test C (Table C8); conditions: visual scoring after about 3 weeks, 100% = plants have died, 0% = like control plants
# Text: as §2
# [5] = test system: Poa annua (POAAN); assay: Herbicidal post-emergence action (Table B3); conditions: rated visually after about 3 weeks, 100% = plants have died, 0% = like control plants
# Method: as §1
# [6] = test system: harmful plants ABUTH, AMARE, ECHCG, LOLRI, MATIN, POAAN, SETVI, STEME, ALOMY, DIGSA, KCHSC and VERPE; assay: Herbicidal pre-emergence action (test C), summary of Tables C1-C12; conditions: application rate of 1280 or 320 g of active ingredient per hectare; summary in words
# Text: as §2, with “percentages.” for “percentages. For example, 100% activity=the plants have died, 0% activity=like control plants. Tables C1 to C12 below show the effects of selected compounds of the general formula (I) according to Table 1 on various harmful plants and an application rate corresponding to 1280 or 320 g/ha, which were obtained by the experimental procedure mentioned above.”
# (§3) For example, 100% activity=the plants have died, 0% activity=like control plants.
# Tables C1 to C12 below show the effects of selected compounds of the general formula (I) according to Table 1 on various harmful plants and an application rate corresponding to 1280 or 320 g/ha, which were obtained by the experimental procedure mentioned above.
# As the results of Tables C1-C12 show, compounds no.
# [7] = test system: harmful plants ABUTH, AMARE, ECHCG, LOLRI, MATIN, POAAN, SETVI, STEME, ALOMY, DIGSA, KCHSC and VERPE; assay: Herbicidal post-emergence action, summary of Tables B1-B12; conditions: application rate of 1280 or 320 g of active ingredient per hectare; summary in words
# Method: as §1, with “controls.” for “controls. For example, 100% activity=the plants have died, 0% activity=like control plants. Tables B1 to B12 below show the effects of selected compounds of the general formula (I) according to Table 1 on various harmful plants and an application rate corresponding to 1280 or 320 g/ha, which were obtained by the experimental procedure mentioned above.”
# as §3
# Tables B1 to B12 below show the effects of selected compounds of the general formula (I) according to Table 1 on various harmful plants and an application rate corresponding to 1280 or 320 g/ha, which were obtained by the experimental procedure mentioned above.
# As the results of Tables B1-B12 show, compounds no.
# [8] = test system: Veronica persica (VERPE); assay: Herbicidal post-emergence action (Table B12); conditions: visual rating about 3 weeks after treatment, 100% = plants have died, 0% = like control plants
# Method: as §1
# [9] = test system: Abutilon theophrasti (ABUTH); assay: Herbicidal pre-emergence action, test C (Table C5); conditions: visual scoring after about 3 weeks, 100% = plants have died, 0% = like control plants
# Text: as §2
# [10] = test system: Abutilon theophrasti (ABUTH); assay: Herbicidal post-emergence action (Table B5); conditions: rated visually after about 3 weeks, 100% = plants have died, 0% = like control plants
# Method: as §1
# [11] = test system: Matricaria inodora (MATIN); assay: Herbicidal pre-emergence action, test C (Table C7); conditions: dosage 1280 g/ha; visual scoring after about 3 weeks; 100% = plants have died, 0% = like control plants
# Text: as §2
# [12] = test system: Poa annua (POAAN); assay: Herbicidal pre-emergence action, test C (Table C3); conditions: visual scoring after about 3 weeks, 100% = plants have died, 0% = like control plants
# Text: as §2
# [13] = test system: Amaranthus retroflexus (AMARE); assay: Herbicidal pre-emergence action, test C (Table C6); conditions: visual scoring after about 3 weeks, 100% = plants have died, 0% = like control plants
# Text: as §2
# [14] = test system: Veronica persica (VERPE); assay: Herbicidal pre-emergence action, test C (Table C12); conditions: dosage 1280 g/ha, visual scoring vs untreated controls
# Text: as §2
# [15] = test system: Digitaria sanguinalis (DIGSA); assay: Herbicidal pre-emergence action, test C (Table C10); conditions: dosage 1280 g/ha; visual scoring after about 3 weeks; 100% = plants have died, 0% = like control plants
# Text: as §2
Compound,Post-emergence action against Stellaria media (STEME) ([1]; dosage 1280 g/ha),Pre-emergence action against Setaria viridis (SETVI) ([2]; dosage 1280 g/ha),Post-emergence action against Amaranthus retroflexus (AMARE) ([3]; dosage 320 g/ha),Post-emergence action against Amaranthus retroflexus (AMARE) ([3]; dosage 1280 g/ha),Pre-emergence action against Stellaria media (STEME) ([4]; dosage 1280 g/ha),Post-emergence action against Poa annua (POAAN) ([5]; 1280 g/ha),herbicidal activity against the harmful plants of Tables C1-C12 in pre-emergence treatment [6],herbicidal activity against the harmful plants of Tables B1-B12 in post-emergence treatment [7],Post-emergence action against Veronica persica (VERPE) ([8]; dosage 1280 g/ha),Pre-emergence action against Abutilon theophrasti (ABUTH) ([9]; dosage 1280 g/ha),Post-emergence action against Abutilon theophrasti (ABUTH) ([10]; 1280 g/ha),Pre-emergence action against Stellaria media (STEME) ([4]; dosage 320 g/ha),Pre-emergence action against Poa annua (POAAN) ([12]; dosage 1280 g/ha),Pre-emergence action against Amaranthus retroflexus (AMARE) ([13]; dosage 320 g/ha),Pre-emergence action against Amaranthus retroflexus (AMARE) ([13]; dosage 1280 g/ha),Post-emergence action against Poa annua (POAAN) ([5]; 320 g/ha),Post-emergence action against Veronica persica (VERPE) ([8]; dosage 320 g/ha),other results
Cc1ccc(-c2cc(C(F)F)no2)c(Oc2ncc(Cl)cc2Cl)c1 [Example 1-28],100%,90%,90%,100%,90%,90%,very good herbicidal activity,very good herbicidal activity,90%,,,,,,,,,Pre-emergence action against Setaria viridis (SETVI) ([2]; dosage 320 g/ha): 90%
Fc1cccc(Oc2ccc(Cl)cn2)c1-c1cc(C(F)F)on1 [Example 1-9],100%,100%,100%,100%,100%,100%,very good herbicidal activity,very good herbicidal activity,,100%,100%,100%,100%,100%,100%,100%,,Post-emergence action against Abutilon theophrasti (ABUTH) ([10]; 320 g/ha): 100%; Pre-emergence action against Matricaria inodora (MATIN) [11]: 90%; Post-emergence action against Stellaria media (STEME) ([1]; dosage 320 g/ha): 100%; Pre-emergence action against Poa annua (POAAN) ([12]; dosage 320 g/ha): 100%
Cc1ccc(-c2cc(C(F)F)no2)c(Oc2ncccc2F)c1 [Example 1-33],,100%,,,100%,,very good herbicidal activity,very good herbicidal activity,100%,90%,,90%,90%,,,,90%,Pre-emergence action against Veronica persica (VERPE) [14]: 90%
N#Cc1ccc(Oc2cccc(F)c2-c2cc(C(F)(F)F)on2)nc1 [Example 1-3],90%,100%,100%,100%,100%,100%,very good herbicidal activity,very good herbicidal activity,,100%,,90%,90%,100%,100%,,,Pre-emergence action against Abutilon theophrasti (ABUTH) ([9]; dosage 320 g/ha): 90%; Pre-emergence action against Matricaria inodora (MATIN) [11]: 90%; Pre-emergence action against Setaria viridis (SETVI) ([2]; dosage 320 g/ha): 100%
Cn1nc(-c2cc(F)ccc2Oc2ccc(Cl)cn2)cc1C(F)F [Example 1-65],,,100%,100%,,,very good herbicidal activity,very good herbicidal activity,100%,,,,100%,90%,100%,,100%,
FC(F)c1cc(-c2ccc(Br)cc2Oc2ccc(Cl)cn2)on1 [Example 1-62],100%,100%,100%,100%,,100%,very good herbicidal activity,very good herbicidal activity,100%,90%,100%,,100%,90%,100%,100%,100%,Pre-emergence action against Veronica persica (VERPE) [14]: 90%; Post-emergence action against Abutilon theophrasti (ABUTH) ([10]; 320 g/ha): 100%; Pre-emergence action against Digitaria sanguinalis (DIGSA) [15]: 100%; Pre-emergence action against Poa annua (POAAN) ([12]; dosage 320 g/ha): 90%
Fc1cccc(Oc2ncc(C(F)(F)F)cc2Cl)c1-c1cc(C(F)F)no1 [Example 1-22],,90%,,,100%,100%,very good herbicidal activity,very good herbicidal activity,,,100%,90%,100%,,100%,100%,,
Fc1cccc(Oc2ncc(Cl)cc2Cl)c1-c1cc(C(F)(F)F)on1 [Example 1-4],100%,,,,,,very good herbicidal activity,very good herbicidal activity,,,,,,,90%,,,
